Common to all, as to assay type: cell-based
In assay [1] the test system is DHODH-dependent respiration in PNT1A cell line. Kind of assay: Inhibition of DHODH-dependent respiration (Oxygraph-2k). The note with it: model of normal prostate tissue, test substance 1 to 4 nM, permeabilized cells. As for the experimental part:
(§1) DHODH-dependent respiration was performed as follows. Cells were trypsinized, washed with PBS, resuspended in an amount of 2×10^6 cells per ml Mir05 medium (0.5 mM EGTA, 3 mM MgCl2, 60 mM K-lactobionate, 20 mM taurine, 10 mM KH2PO4, 110 mM sucrose, 1 g/L bovine serum albumin, 20 mM Hepes, pH 7.1 at 30° C.) and transferred to the chamber of the Oxygraph-2k instrument (Oroboros). Respiration was measured at 37° C. Cells were permeabilized with 5 μg of digitonin per 10^6 cells, and complex I inhibitor (0.3 μM rotenone) and test substance were added at concentrations from 1 to 4 nM before adding the substrate. DHODH-mediated respiration was assessed by subtracting the residual rate of respiration remaining after the addition of 30 μM leflunomide from the rate of respiration in the presence of 1 mM dihydroorotate (DHO), 3 mM ADP, and 10 μM cytochrome c.

In assay [2] the test system is DHODH-dependent respiration in U-2 OS. The description is as above. The settings on record: U-2 OS tumor line; test substance 1 to 4 nM; permeabilized cells. The method, then: as §1
Assay [3] concerns DHODH-dependent respiration in PC-3. The description is as above. The settings on record: PC-3 tumor line; test substance 1 to 4 nM; permeabilized cells. The method, then:
as §1

Assay [4] has as its system PNTA. Kind of assay: xCELLigence real-time impedance cell invasiveness (matrigel). The note with it: for Normalized cell index (cell invasiveness): matrigel-coated wells, normalized to 1.0 at addition of test agent, concentration based on IC50 for the cell line. As for the experimental part: (§2) The xCELLigence system based on real-time cell impedance analysis (RTCA) was used to determine invasiveness and migration rates. The xCELLigence system consists of four main components: an RTCA DP station, an RTCA computer with integrated software, and CIM 16 disposable plates. First, the optimal cell seeding concentration for the proliferation and invasiveness assay was determined. After seeding the total number of cells in 200 μl medium into each well in E-plate 16, cell adherence and proliferation were monitored every 15 minutes. For the invasiveness assay, the optimal response was found in a well containing 20,000 cells. After coating the upper wells with matrigel and adding FBS as a chemoattractant, cells were seeded in 100 μl medium in each well of a CIM-plate 16. Adherence and growth of cells through the matrigel was monitored every 15 minutes. The duration of all experiments was 150 hours. The relative invasiveness rate was defined as the cellular index for matrigel-coated wells (cells must spread/pass through the matrigel to generate a signal) at a given time point. The impedance of electron flow due to adherent cells is given by a unitless parameter called the cell index (CI), where CI=(impedance at time point n-impedance in the absence of cells)/nominal impedance value). In order to compare individual cell lines/treatment, these cell indices were normalized to 1.0 at the time the test agents were added. Concentrations of compounds were chosen based on the IC50 inhibitory concentration for each cell line.

For assay [5], the system named is U-2 OS. Described as above. The settings on record: for Normalized cell index (cell invasiveness): matrigel-coated wells, normalized to 1.0 at addition of test agent, concentration based on IC50 for the cell line. The method, then: as §2
Assay [6] deals with PC-3. Described as above. The note with it: for Normalized cell index (cell invasiveness): matrigel-coated wells, normalized to 1.0 at addition of test agent, concentration based on IC50 for the cell line. The method, then: as §2
Assay [7] relates to PNTA. Kind of assay: xCELLigence real-time impedance cell migration. The settings on record: for Normalized cell index (cell migration): cell index normalized to 1.0 at addition of test agent, concentration based on IC50 for the cell line. The method, then: as §2
Assay [8] relates to U-2 OS. Kind of assay: xCELLigence real-time impedance cell migration. The note with it: for Normalized cell index (cell migration): cell index normalized to 1.0 at addition of test agent, concentration based on IC50 for the cell line. As for the experimental part:
as §2

For assay [9], the system named is PC-3. Kind of assay: xCELLigence real-time impedance cell migration. The note with it: for Normalized cell index (cell migration): cell index normalized to 1.0 at addition of test agent, concentration based on IC50 for the cell line. The method, then: as §2

Consider `CCCN1/C(=C/C=C(/C=C/c2sc3ccccc3[n+]2CCC)c2ccccc2)Sc2ccccc21.[I-]` [Substance 1], for which the DHODH-dependent respiration entry in [1] is on record as “unaffected”; in assay [2] it was “caused a decrease in DHODH-dependent respiration”; in assay [3], “caused a decrease in DHODH-dependent respiration”. The results for the “Control-substance (difference of normalized cell index, cell invasiveness)” value in the assay on PNTA [4], in the assay on U-2 OS [5] and with PC-3 [6] were 16.9, 24.3 and 21.4, respectively. For the same molecule, the entries for the “Normalized cell index (cell invasiveness)” value with PNTA [4], in the assay with U-2 OS [5] and with PC-3 [6] were 2.8, 1.3 and 1.4, respectively. The “Control-substance (difference of normalized cell index, cell migration)” value worked out at 15.2 with PNTA [7], 20.8 in the assay on U-2 OS [8] and 30.0 in the assay on PC-3 [9]. The “Normalized cell index (cell migration)” value was found to be 3.4 in the assay on PNTA [7], 3.5 with U-2 OS [8] and 8.8 with PC-3 [9].

On to `CCCN1/C(=C/C=C(/C=C/C2=[N+](CCC)c3ccccc3C2(C)C)c2ccncc2)C(C)(C)c2ccccc21.[I-]` [Substance 2], for which the results for the DHODH-dependent respiration entry in assay [1], in [2] and in assay [3] were “unaffected”, “caused a decrease in DHODH-dependent respiration” and “caused a decrease in DHODH-dependent respiration”, respectively. Also, the results for the “Control-substance (difference of normalized cell index, cell invasiveness)” value with PNTA [4], in the assay with U-2 OS [5] and in the assay on PC-3 [6] were 16.5, 23.7 and 17.4, respectively. For the same molecule, the “Normalized cell index (cell invasiveness)” value in the assay on PNTA [4] turned out to be 3.2; with U-2 OS [5], 1.9; in the assay with PC-3 [6], 5.4. The “Control-substance (difference of normalized cell index, cell migration)” value with PNTA [7] was determined as 11.6; with U-2 OS [8], 20.4; in the assay with PC-3 [9], 19.3. The “Normalized cell index (cell migration)” value with PNTA [7] came to 7.0; with U-2 OS [8] it was 3.9; in the assay on PC-3 [9], 19.5.

Values taken from patent publication US20250186420A1, “POLYMETHINIUM SALTS AS INHIBITORS OF DIHYDROOROTATE DEHYDROGENASE” (UNIVERZITA KARLOVA, priority 2022, published 2025).
